Four molecules from PMC7696940, “Effects of Rationally Designed Physico-Chemical Variants of the Peptide PuroA on Biocidal Activity towards Bacterial and Mammalian Cells” (International Journal of Molecular Sciences, 2020) can be followed below.

Several values for one entry are separate records, joined by “and”; a condition that tells them apart may be missing. Identical values can stand only once. Where no end group is shown, it is not given here.

The test system of one assay is MRSA M173525. The assay is described as follows: Inhibition of initial cell attachment (CV and MTT assays). Type of assay: cell-based, methicillin-resistant Staphylococcus aureus. The following applies: polystyrene, 24 h, 37 °C, triplicate. On the procedure:
(§1) The effects of PuroA and other selected peptides (based on their antibacterial activity) on both the initial cell attachment and 6 h preformed biofilms of MRSA on polystyrene were tested as described by Jadhav et al., at their respective 0.5 × MIC, 1 × MIC, and 2 × MIC concentrations. All tests were conducted in triplicate. For testing the inhibition of initial cell attachment, 100 μL of peptide solutions were added to the microtitre plates, then mixed with 100 μL of M173525 cell suspension (1 × 10^6 CFU/mL, cultured in tryptic soy broth medium (TSB; Oxoid) containing 1% glucose), or 100 μL of sterile MilliQ water as negative control. The plates were incubated at 37 °C for 24 h to allow cell attachment. The biofilm formation was then assessed using CV and MTT assays. […] Peptide solutions (100 μL) were then added, the plates incubated at 37 °C for 1 h and the biofilms assessed.
(§2) The assay works as an indicator of attached living and non-living biomass. Indirect assessment of cell attachment of MRSA was estimated using the modified CV assay as per Jadhav et al.. After incubations of the plates (for 24 h or 1 h, as above), the culture medium from each well was removed gently and any non-adherent bacteria removed by washing the plates five times with sterile distilled water (dH2O). The plates were air-dried, then oven-dried at 60 °C for 1 h. The biofilm cells in the wells were stained with 100 μL of 1% CV and incubated for 15 min at room temperature. Excess stain was removed by washing the plates three times with sterile dH2O. Ethanol (95%, 125 µL) was transferred to each well to de-stain the cells. The de-staining solution from each well was then transferred to a new plate and its absorbance measured at 595 nm. The percentage inhibition of biomass formation concentration was calculated as: ((OD595 nm control well without peptide − OD5 95 well with peptide)/OD595 nm control well without peptide) × 100. All tests were conducted in triplicate.
(§3) A modified methylthiazotetrazolium (MTT) (3-[4,5-dimethyl thiazol-2-yl]-2, 5-diphenyltetrazolium bromide) reduction assay was used, wherein the blue product (MTT salt reduced to formazan by dehydrogenases) is taken as a respiratory indicator of live cells. Briefly, MTT (Sigma-Aldrich, Gillingham, UK) was dissolved in PBS to 5 mg/mL. After incubations of plates (for 24 h or 1 h, as above), the culture medium was gently removed and the plates air-dried. PBS (100 μL) and MTT (5 µL, 5 mg/mL) were added to each well and the plates incubated for 3 h at 37 °C. The insoluble purple product was dissolved in 100 µL of dimethyl sulphoxide (DMSO, Sigma-Aldrich, Gillingham, UK) and the absorbance measured at 570 nm. The % inhibition of metabolic activity was calculated as: ((OD570 nm control well without peptide − OD570 nm well with peptide)/OD570 nm control well without peptide) × 100. All tests were conducted in triplicate.
A general note: Tetrazolium dyes change colour on reduction, which living cells bring about.

For another assay, the system named is MRSA M173525 biofilm. Nature of the assay: Inhibition of preformed 6 h biofilm (CV and MTT assays). Type of assay: cell-based, methicillin-resistant Staphylococcus aureus. Particulars: 37 °C, triplicate. On the procedure: as §1, §2, §3
The test system of another assay is HeLa cells. It counts as cell-based, human. The following applies: MTT, 24 h, peptide up to 250 µg/mL; concentration causing 50% cell growth inhibition; mean of triplicate assays. On the procedure: Cytotoxicity to human cervical carcinoma HeLa cells and mouse fibroblastic NIH-3T3 cells was determined using the MTT assay as per Scudiero et al. with minor modifications. The cells were maintained in Dulbecco’s Modified Eagle Medium (DMEM) with 10% foetal bovine serum (FBS) and 1% penicillin G in a humidified incubator (Heraeus Hera Cell incubator) at 37 °C with 5% CO2. They were seeded in 96-well microtiter plates at 1 × 10^4 cells/well and allowed to adhere for 24 h in the incubator. The medium was removed, and adherent cells were washed with PBS. Fresh media containing serially diluted peptides in PBS (final concentrations 4 to 250 µg/mL) were added and the cells incubated for 24 h. Cells without peptides were used as negative controls. Following incubations, the medium was removed, and adherent cells were washed with PBS. 150 µL of MTT (diluted to 0.33 mg/mL in DMEM) and the plates incubated for 3 h. The precipitated formazan was dissolved in 100 µL of DMSO and its absorbance measured at 570 nm. Cell viability was determined as: (OD570 nm peptide treated cells/(OD570 nm untreated cells) × 100. Positive cytotoxicity was defined as peptide concentration that causes 50% growth inhibition in a cell line (IC50). All tests were carried out in triplicate.

In the case of `CC(C)[C@H](NC(=O)[C@@H]1CCCN1C(=O)[C@@H](N)Cc1ccccc1)C(=O)N[C@H](C(=O)N[C@@H](Cc1c[nH]c2ccccc12)C(=O)N[C@@H](CCCNC(=N)N)C(=O)N[C@@H](Cc1c[nH]c2ccccc12)C(=O)N[C@@H](Cc1c[nH]c2ccccc12)C(=O)N[C@@H](CCCCN)C(=O)N[C@@H](Cc1c[nH]c2ccccc12)C(=O)N[C@@H](Cc1c[nH]c2ccccc12)C(=O)N[C@@H](CCCCN)C(=O)NCC(N)=O)[C@@H](C)O` [PuroA], the “Percentage of Inhibition of Initial MRSA Cells Attachment, CV” value (“Percentage of Inhibition … CV” below) in the assay with MRSA M173525 (0.5 × MIC) is on record as 70 ± 5.6%; in the assay with MRSA M173525 (1 × MIC), 75 ± 4.0%; in the assay with MRSA M173525 (2 × MIC) it was 79 ± 4.5%. Also, the “Percentage of Inhibition of Initial MRSA Cells Attachment, MTT” value (“Percentage of Inhibition … MTT” below) is 92 ± 1.5% in the assay with MRSA M173525 (0.5 × MIC); 95 ± 1.1% with MRSA M173525 (1 × MIC); 95% and 95 ± 0.5% with MRSA M173525 (2 × MIC). In addition, the “% Inhibition of Preformed 6 h MRSA Biofilm after 1 h Incubation, CV” value (“% Inhibition … CV” for short) in the assay with MRSA M173525 biofilm (0.5 × MIC) amounted to 68 ± 9.2%; in the assay with MRSA M173525 biofilm (1 × MIC) it was 75 ± 7.5%; in the assay with MRSA M173525 biofilm (2 × MIC), 77 ± 7.0%. Also, the “% Inhibition of Preformed 6 h MRSA Biofilm after 1 h Incubation, MTT” value (shortened to “% Inhibition … MTT”) turned out to be 90 ± 2.5% with MRSA M173525 biofilm (0.5 × MIC), 92 ± 4.0% in the assay on MRSA M173525 biofilm (1 × MIC) and 95 ± 2.6% in the assay on MRSA M173525 biofilm (2 × MIC). Besides, the “IC50 HeLa” value in the assay on HeLa cells was over 250 µg/mL.

Consider RKRWWRWWKWWKR-NH2 [Peptide P1], for which the results for the “Percentage of Inhibition … CV” value with MRSA M173525 (0.5 × MIC), in the assay on MRSA M173525 (1 × MIC) and in the assay with MRSA M173525 (2 × MIC) were 72 ± 3.1%, 75 ± 1.9% and 78 ± 6.1%, respectively. For the same molecule, the “Percentage of Inhibition … MTT” value in the assay with MRSA M173525 (0.5 × MIC) came to 92 ± 3.0%; in the assay on MRSA M173525 (1 × MIC) it was 95 ± 2.3%; in the assay on MRSA M173525 (2 × MIC) it was 95 ± 2.5%. In addition, the entries for the “% Inhibition … CV” value with MRSA M173525 biofilm (0.5 × MIC), in the assay with MRSA M173525 biofilm (1 × MIC) and with MRSA M173525 biofilm (2 × MIC) were 70 ± 6.9%, 74 ± 5.8% and 78 ± 3.1%, respectively. The “% Inhibition … MTT” value in the assay on MRSA M173525 biofilm (0.5 × MIC) came to 93 ± 5.0%; in the assay on MRSA M173525 biofilm (1 × MIC), 95 ± 3.8%; with MRSA M173525 biofilm (2 × MIC), 95 ± 4.0%. In addition, the “IC50 HeLa” value in the assay on HeLa cells amounted to 32 µg/mL.

For the molecule WRWWKWW-NH2 [Peptide W7], the “Percentage of Inhibition … CV” value with MRSA M173525 (0.5 × MIC) is recorded as 69 ± 3.6%; in the assay on MRSA M173525 (1 × MIC), 75 ± 5.0%; in the assay on MRSA M173525 (2 × MIC), 76 ± 4.8%. Besides, the “Percentage of Inhibition … MTT” value with MRSA M173525 (0.5 × MIC) is recorded as 90 ± 2.9%; with MRSA M173525 (1 × MIC), 95 ± 4.0%; in the assay with MRSA M173525 (2 × MIC), 96 ± 1.5%. The “% Inhibition … CV” value amounted to 67 ± 6.0% with MRSA M173525 biofilm (0.5 × MIC), 75.5 ± 3.0% with MRSA M173525 biofilm (1 × MIC) and 75 ± 5.5% in the assay with MRSA M173525 biofilm (2 × MIC). Also, the “% Inhibition … MTT” value in the assay on MRSA M173525 biofilm (0.5 × MIC) amounted to 88 ± 2.5%; in the assay with MRSA M173525 biofilm (1 × MIC), 90 ± 4.7%; in the assay on MRSA M173525 biofilm (2 × MIC) it was 94 ± 0.5%. The “IC50 HeLa” value with HeLa cells came to 250 µg/mL.

WWRWWKWW-NH2 [WW]: the “Percentage of Inhibition … CV” value came out at 71.5 ± 3.5% in the assay on MRSA M173525 (0.5 × MIC), 73 ± 6.2% with MRSA M173525 (1 × MIC) and 79 ± 7.5% in the assay with MRSA M173525 (2 × MIC). Moreover, the “Percentage of Inhibition … MTT” value with MRSA M173525 (0.5 × MIC) came to 90 ± 2.0%; in the assay with MRSA M173525 (1 × MIC), 95 ± 3.1%; in the assay with MRSA M173525 (2 × MIC), 96 ± 0.5%. Also, the “% Inhibition … CV” value in the assay on MRSA M173525 biofilm (0.5 × MIC) is 69 ± 7.8%; with MRSA M173525 biofilm (1 × MIC) it was 71 ± 4.5%; in the assay on MRSA M173525 biofilm (2 × MIC), 74 ± 2.0%. The “% Inhibition … MTT” value is on record as 91 ± 3.0% in the assay on MRSA M173525 biofilm (0.5 × MIC), 92 ± 3.5% with MRSA M173525 biofilm (1 × MIC) and 95 ± 1.7% in the assay on MRSA M173525 biofilm (2 × MIC). In addition, in the assay with HeLa cells, the “IC50 HeLa” value was 250 µg/mL.
